The source of these data is PubChem BioAssay (NCI).

Test systems include COLO 205 colon; K-562 leukemia; LOX IMVI melanoma; MALME-3M melanoma; NCI-H522 lung; SF-295 CNS; SK-MEL-28 melanoma; SNB-19 CNS; UACC-257 melanoma; UACC-62 melanoma.
What all share (experiment): growth of human tumour cells (NCI), 48 h

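The compound was tested at five concentrations on cells cultured in 96-well plates, with a 48-hour exposure period. Here, GI50 denotes the concentration required for 50% inhibition of growth. At the TGI there is no net growth.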

As for `CC(=N\O)/C(C)=N/O.CC(=N\O)/C(C)=N/O.CC(=N\O)/C(C)=N/O.CC(=N\O)/C(C)=N/O.[Cu].[Cu]`, the GI50 in the experiment on COLO 205 colon is 18.8 µM; in the experiment on K-562 leukemia, 34.3 µM; in the experiment on LOX IMVI melanoma, 19 µM; in the experiment with MALME-3M melanoma, 17.7 µM; in the experiment with NCI-H522 lung, 18.2 µM; in the experiment with SF-295 CNS, 19.9 µM. Also, the GI50 with SK-MEL-28 melanoma is 18.8 µM; with SNB-19 CNS it was 19.7 µM; with UACC-257 melanoma, 20.2 µM; in the experiment on UACC-62 melanoma, 17.1 µM. For the same compound, the TGI in the experiment on COLO 205 colon is 34 µM; in the experiment with K-562 leukemia, 91.9 µM; with LOX IMVI melanoma it was 35.3 µM; with MALME-3M melanoma it was 32.4 µM; in the experiment with NCI-H522 lung, 34.1 µM; in the experiment on SF-295 CNS, 37.9 µM. In addition, the TGI is 35.4 µM with SK-MEL-28 melanoma, 34.5 µM with SNB-19 CNS, 34.5 µM in the experiment on UACC-257 melanoma and 30.8 µM in the experiment on UACC-62 melanoma.
As to `O=S(=O)([O-])[O-].[Cl-].[NH2-].[NH2-].[NH2-].[NH2-].[Ru+3].c1ccc(-c2cccnc2)cc1`, the GI50 with COLO 205 colon, in the experiment on K-562 leukemia, with LOX IMVI melanoma, with MALME-3M melanoma, in the experiment on NCI-H522 lung and with SF-295 CNS was more than 100 µM in each case. Also, the GI50 in the experiment on SK-MEL-28 melanoma, with UACC-257 melanoma and with UACC-62 melanoma was more than 100 µM each time. The TGI with COLO 205 colon, in the experiment on K-562 leukemia, in the experiment on LOX IMVI melanoma, in the experiment with MALME-3M melanoma, with NCI-H522 lung and with SF-295 CNS was more than 100 µM in each case. Besides, the TGI in the experiment on SK-MEL-28 melanoma, with UACC-257 melanoma and in the experiment with UACC-62 melanoma was more than 100 µM each time.
As for `Cc1cc2c(cc1C)[n+](=O)c(C(=O)/C=C/c1ccc(Cl)cc1)c(C)n2[O-]`, the TGI with COLO 205 colon was 41.1 µM; in the experiment with K-562 leukemia, more than 100 µM; in the experiment on LOX IMVI melanoma, 50.4 µM; in the experiment on MALME-3M melanoma, more than 100 µM; with NCI-H522 lung, 50.4 µM; with SF-295 CNS, 69.3 µM. The TGI in the experiment with SK-MEL-28 melanoma is 59.4 µM; with SNB-19 CNS, more than 100 µM; with UACC-257 melanoma it was 89.9 µM; in the experiment with UACC-62 melanoma, 44.3 µM.
With `COc1cc(C(=O)/C=C/c2c(-c3ccc(F)cc3)nc3sc(C)cn23)cc(OC)c1OC`, the GI50 in the experiment with COLO 205 colon was 4.94 µM; in the experiment on K-562 leukemia it was 5.46 µM; with LOX IMVI melanoma, 2.5 µM; in the experiment on MALME-3M melanoma, 2.69 µM; in the experiment on NCI-H522 lung, 2.96 µM; in the experiment on SF-295 CNS it was 2.33 µM. In addition, the GI50 in the experiment on SK-MEL-28 melanoma is 7.07 µM; with SNB-19 CNS, 87.7 µM; with UACC-257 melanoma, 4.75 µM; in the experiment on UACC-62 melanoma, 2.91 µM. The TGI in the experiment with COLO 205 colon is more than 100 µM; in the experiment with K-562 leukemia, more than 100 µM; with LOX IMVI melanoma, more than 100 µM; in the experiment on MALME-3M melanoma it was more than 100 µM; in the experiment with NCI-H522 lung, more than 100 µM; in the experiment on SF-295 CNS it was 26.7 µM. The TGI in the experiment on SK-MEL-28 melanoma, in the experiment on SNB-19 CNS, with UACC-257 melanoma and in the experiment with UACC-62 melanoma was more than 100 µM in each case.
As for `O=S1(=O)N(Cc2ccccc2)[C@@H](Cc2ccccc2)C2O[C@H]2[C@H](Cc2ccccc2)N1Cc1ccccc1` (stereo partly drawn), the GI50 with COLO 205 colon was more than 7.5 µM; in the experiment with K-562 leukemia it was 3.34 µM; with LOX IMVI melanoma it was 5.38 µM; with MALME-3M melanoma, more than 7.5 µM; with NCI-H522 lung, 1.83 µM; in the experiment on SF-295 CNS it was 1.8 µM. The GI50 is more than 7.5 µM in the experiment on SK-MEL-28 melanoma, more than 7.5 µM with SNB-19 CNS, 2.89 µM in the experiment on UACC-257 melanoma and 6.75 µM in the experiment on UACC-62 melanoma. Further, the TGI in the experiment on COLO 205 colon, in the experiment with K-562 leukemia, in the experiment on LOX IMVI melanoma, in the experiment on MALME-3M melanoma, in the experiment with NCI-H522 lung and in the experiment with SF-295 CNS was more than 7.5 µM in each case. Moreover, the TGI with SK-MEL-28 melanoma, in the experiment on SNB-19 CNS, in the experiment on UACC-257 melanoma and with UACC-62 melanoma was more than 7.5 µM throughout.
With `COc1ccc(C2=CC(c3cc(OC)c(OC)c(OC)c3)NC(=O)N2)cc1OC` (stereo not drawn), the GI50 was 2.65 µM with COLO 205 colon; 1.96 µM with K-562 leukemia; 3.05 µM in the experiment with LOX IMVI melanoma; 5.06 µM with MALME-3M melanoma; 2.78 µM with NCI-H522 lung; 2.34 µM in the experiment on SF-295 CNS. The GI50 in the experiment with SK-MEL-28 melanoma was 6.97 µM; with SNB-19 CNS it was 4.73 µM; in the experiment with UACC-257 melanoma, 10.8 µM; in the experiment with UACC-62 melanoma it was 4.31 µM. Moreover, the TGI was 6.69 µM in the experiment on COLO 205 colon; 24.5 µM in the experiment with K-562 leukemia; 11.7 µM with LOX IMVI melanoma; 21.1 µM in the experiment with MALME-3M melanoma; 11.2 µM with NCI-H522 lung; 7.87 µM with SF-295 CNS. The TGI in the experiment with SK-MEL-28 melanoma amounted to 20.5 µM; with SNB-19 CNS it was 17 µM; with UACC-257 melanoma it was 23.2 µM; in the experiment on UACC-62 melanoma, 16.8 µM.
As to `Cc1nc2cncc(C#Cc3cncc(C(=O)Nc4ccc(CN5CCN(C)CC5)c(C(F)(F)F)c4)c3)c2nc1C`, the GI50 in the experiment on COLO 205 colon was 0.196 µM; in the experiment with K-562 leukemia, 0.005 µM; in the experiment on LOX IMVI melanoma it was 0.208 µM; in the experiment with MALME-3M melanoma, 0.146 µM; with NCI-H522 lung, 0.466 µM; with SF-295 CNS, 2.13 µM. Also, the GI50 in the experiment with SK-MEL-28 melanoma is 0.422 µM; with SNB-19 CNS, 5.08 µM; in the experiment with UACC-257 melanoma it was 0.549 µM; in the experiment on UACC-62 melanoma it was 0.24 µM. In addition, the TGI in the experiment on COLO 205 colon was 5.96 µM; in the experiment with K-562 leukemia, 5.81 µM; with LOX IMVI melanoma, 0.807 µM; with MALME-3M melanoma, 0.623 µM; with NCI-H522 lung, 8.21 µM; in the experiment on SF-295 CNS, 22.2 µM. In addition, the TGI with SK-MEL-28 melanoma worked out at 2.71 µM; in the experiment on SNB-19 CNS, 13.2 µM; in the experiment on UACC-257 melanoma, 3.56 µM; in the experiment on UACC-62 melanoma, 1.47 µM.
